pEC50, pKi: −log10 of the molar value. Numbered stars: 1 amine (or outer) side, 2 acyl side, 3 side chain; on linkers, the order of the positions; unused ones are H or OH. Bridge positions count the residues as written; N and C are the ends. Square brackets hold non-standard residues; d marks the D form. Peptide text beside a SMILES is read from it. Trp(5-F) = N[C@@H](Cc1c[nH]c2ccc(F)cc12)C(=O)O; Lys(Me3) = C[N+](C)(C)CCCC[C@H](N)C(=O)O; X1 = O=C(CCSCc1cccc(CSCCN[*:1])c1)[*:2]; mXylylene = c1cc(C[*:1])cc(C[*:2])c1; αMeP = C[C@@]1(C(=O)O)CCCN1; Mpa = O=C(O)CCS
Key:
PCSK9/LDLR = PCSK9/LDLR (Homo sapiens, UniProt Q8NBP7); assay: Inhibition of avi-tagged-biotinylated human PCSK9 interaction with His-tagged human LDLR EGFa domain by LANCE Ulight Streptavidin based TR-FRET assay; assay type: protein assay
Chain of PCSK9/LDLR (Q8NBP7 31-152 limits assumed): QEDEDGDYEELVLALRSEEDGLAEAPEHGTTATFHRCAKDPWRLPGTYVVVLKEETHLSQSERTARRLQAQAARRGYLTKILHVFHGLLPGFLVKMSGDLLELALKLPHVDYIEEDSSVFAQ
Chain of PCSK9/LDLR (Q8NBP7 153-692 limits assumed): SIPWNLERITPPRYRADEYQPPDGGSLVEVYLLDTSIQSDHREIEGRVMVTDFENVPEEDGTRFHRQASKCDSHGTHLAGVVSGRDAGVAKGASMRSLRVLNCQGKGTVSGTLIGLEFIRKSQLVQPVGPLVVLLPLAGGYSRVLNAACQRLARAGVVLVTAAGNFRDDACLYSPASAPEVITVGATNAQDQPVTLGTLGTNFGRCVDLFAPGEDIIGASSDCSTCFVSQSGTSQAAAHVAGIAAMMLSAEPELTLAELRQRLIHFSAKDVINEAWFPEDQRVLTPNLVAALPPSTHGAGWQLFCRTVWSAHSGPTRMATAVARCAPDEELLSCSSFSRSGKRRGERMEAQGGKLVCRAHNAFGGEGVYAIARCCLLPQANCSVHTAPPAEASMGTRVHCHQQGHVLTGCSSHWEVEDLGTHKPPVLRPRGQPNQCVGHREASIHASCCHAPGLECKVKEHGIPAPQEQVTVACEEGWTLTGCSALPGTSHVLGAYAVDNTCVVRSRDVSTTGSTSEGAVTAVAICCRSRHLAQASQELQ
Chain of PCSK9/LDLR (P01130 22-860 partner limits assumed): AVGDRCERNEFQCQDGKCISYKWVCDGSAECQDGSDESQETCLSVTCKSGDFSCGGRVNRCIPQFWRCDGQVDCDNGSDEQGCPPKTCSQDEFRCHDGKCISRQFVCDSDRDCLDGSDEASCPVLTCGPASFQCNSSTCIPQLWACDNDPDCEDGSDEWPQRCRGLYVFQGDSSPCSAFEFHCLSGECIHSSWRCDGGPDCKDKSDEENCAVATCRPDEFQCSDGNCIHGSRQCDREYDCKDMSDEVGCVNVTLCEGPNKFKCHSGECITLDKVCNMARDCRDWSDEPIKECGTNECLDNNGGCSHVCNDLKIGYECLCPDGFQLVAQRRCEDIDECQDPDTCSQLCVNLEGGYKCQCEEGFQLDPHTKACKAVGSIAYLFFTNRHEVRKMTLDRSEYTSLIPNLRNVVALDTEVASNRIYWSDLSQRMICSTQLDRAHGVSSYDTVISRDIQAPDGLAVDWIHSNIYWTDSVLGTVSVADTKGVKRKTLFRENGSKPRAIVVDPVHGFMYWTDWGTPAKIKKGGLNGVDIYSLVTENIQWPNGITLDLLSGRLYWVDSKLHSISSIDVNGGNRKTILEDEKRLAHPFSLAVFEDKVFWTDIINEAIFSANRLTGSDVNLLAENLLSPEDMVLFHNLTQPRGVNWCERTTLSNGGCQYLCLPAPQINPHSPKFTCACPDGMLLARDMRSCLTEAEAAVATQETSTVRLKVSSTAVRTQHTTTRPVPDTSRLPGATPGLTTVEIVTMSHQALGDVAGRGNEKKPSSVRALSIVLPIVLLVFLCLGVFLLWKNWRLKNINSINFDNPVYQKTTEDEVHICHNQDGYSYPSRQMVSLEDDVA

[1] = AUC (0 to infinity) in C57BL/6 mouse at 1 mg/kg, iv by LC-MS/MS analysis; assay type: ADME, organism-based; parameters: route intravenous, time infinity, dose 1 mg/kg; settings: C57BL/6, mouse, in vivo
[2] = AUC (0 to X) in C57BL/6 mouse at 1 mg/kg, iv by LC-MS/MS analysis; assay type: ADME, organism-based; parameters: dose 1 mg/kg; settings: in vivo
[3] = Clearance in C57BL/6 mouse at 1 mg/kg, iv by LC-MS/MS analysis; assay type: ADME, organism-based; settings: in vivo
[4] = Volume of distribution at steady state in C57BL/6 mouse at 1 mg/kg, iv by LC-MS/MS analysis; assay type: ADME, organism-based; settings: in vivo, read-out: Vdss
[5] = Half life in C57BL/6 mouse at 1 mg/kg, iv by LC-MS/MS analysis; assay type: ADME, organism-based; settings: in vivo
[6] = Protein binding in mouse plasma at 2.5 uM measured after 4 hrs by equilibrium dialysis based LC-MS/MS analysis; assay type: ADME, cell-free; settings: read-out: PPB (converted)
Chymotrypsinogen A = Chymotrypsinogen A (Bos taurus, UniProt P00766); assay: Enzymatic stability assessed as bovine pancreatic alpha-chymotrypsin-mediated compound hydrolysis by measuring parent compound remaining at 100 uM incubated for 1 hr by LC-MS/MS analysis; assay type: ADME; settings: cattle, read-out: Stabilty
[7] = target: Chymotrypsin-like elastase family member 1 (Sus scrofa, UniProt P00772); assay: Enzymatic stability assessed as porcine type 4 pancreatic elastase-mediated compound hydrolysis by measuring parent compound remaining at 100 uM incubated for 1 hr by LC-MS/MS analysis; assay type: ADME; settings: pig, read-out: Stabilty
Chain of Chymotrypsin-like elastase family member 1 (P00772 whole entry): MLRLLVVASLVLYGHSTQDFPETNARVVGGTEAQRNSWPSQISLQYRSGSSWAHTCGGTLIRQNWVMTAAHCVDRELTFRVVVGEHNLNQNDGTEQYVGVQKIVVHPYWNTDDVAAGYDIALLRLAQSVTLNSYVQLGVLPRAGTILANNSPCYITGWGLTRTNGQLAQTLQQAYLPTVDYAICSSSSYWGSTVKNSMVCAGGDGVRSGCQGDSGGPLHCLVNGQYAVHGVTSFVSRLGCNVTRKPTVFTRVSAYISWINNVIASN

[8] = Enzymatic stability assessed as porcine pepsin-mediated compound hydrolysis by measuring parent compound remaining at 100 uM incubated for 1 hr by LC-MS/MS analysis; assay type: ADME, Sus scrofa; settings: pig, read-out: Stabilty
[9] = Enzymatic stability assessed as bovine pancreatic trypsin-mediated compound hydrolysis by measuring parent compound remaining at 100 uM incubated for 1 hr by LC-MS/MS analysis; assay type: ADME, Bos taurus; settings: cattle, read-out: Stabilty
[10] = Half life in C57BL/6 mouse whole blood at 100 uM by LC-MS/MS analysis; assay type: ADME, tissue-based
[11] = Half life in cynomolgus monkey whole blood at 100 uM by LC-MS/MS analysis; assay type: ADME, tissue-based, Macaca fascicularis
[12] = target: Proprotein convertase subtilisin/kexin type 9 (Homo sapiens, UniProt Q8NBP7); assay: Inhibition of AlexaFluor647-tagged cyclic peptide binding to avi-tagged-biotinylated human PCSK9 measured after 2 hrs by Lance Streptavidin Europium based FRET assay
Chain of Proprotein convertase subtilisin/kexin type 9 (Q8NBP7 31-152 limits assumed): as the sequence (Q8NBP7 31-152 limits assumed) above
Chain of Proprotein convertase subtilisin/kexin type 9 (Q8NBP7 153-692 limits assumed): as the sequence (Q8NBP7 153-692 limits assumed) above

[13] = AUC (0 to infinity) in Wistar Han rat at 1 mg/kg, iv by LC-MS/MS analysis; assay type: ADME, organism-based; parameters: route intravenous, time infinity, dose 1 mg/kg; settings: in vivo
[14] = AUC (0 to X) in Wistar Han rat at 1 mg/kg, iv by LC-MS/MS analysis; assay type: ADME, organism-based; parameters: dose 1 mg/kg; settings: in vivo
[15] = Volume of distribution at steady state in Wistar Han rat at 1 mg/kg, iv by LC-MS/MS analysis; assay type: ADME, organism-based; settings: in vivo, read-out: Vdss
[16] = Half life in Wistar Han rat at 1 mg/kg, iv by LC-MS/MS analysis; assay type: ADME, organism-based; settings: in vivo
[17] = Protein binding in Wistar Han rat plasma; assay type: ADME, cell-free; settings: read-out: PPB (converted)
[18] = AUC (0 to infinity) in cynomolgus monkey at 0.5 mg/kg, iv by LC-MS/MS analysis; assay type: ADME, organism-based, Macaca fascicularis; parameters: time infinity, route intravenous, dose 0.5 mg/kg; settings: in vivo
[19] = AUC (0 to X) in cynomolgus monkey at 0.5 mg/kg, iv by LC-MS/MS analysis; assay type: ADME, organism-based, Macaca fascicularis; parameters: dose 0.5 mg/kg; settings: in vivo
[20] = Clearance in cynomolgus monkey at 0.5 mg/kg, iv by LC-MS/MS analysis; assay type: ADME, organism-based, Macaca fascicularis; settings: in vivo
[21] = Volume of distribution at steady state in cynomolgus monkey at 0.5 mg/kg, iv by LC-MS/MS analysis; assay type: ADME, organism-based, Macaca fascicularis; settings: in vivo, read-out: Vdss
[22] = Half life in cynomolgus monkey at 0.5 mg/kg, iv by LC-MS/MS analysis; assay type: ADME, organism-based, Macaca fascicularis; settings: in vivo
[23] = Protein binding in cynomolgus monkey plasma; assay type: ADME, cell-free, Macaca fascicularis; settings: read-out: PPB (converted)
[24] = Induction of mast cell degranulation in Wistar rat isolated peritoneal cells assessed as effect on histamine release measured after 30 mins; assay type: tissue-based
[25] = Cytotoxicity against Wistar rat isolated peritoneal cells assessed as reduction in cell viability up to 60 uM measured after 30 mins; assay type: cell-based; settings: peritoneal macrophage cell, 0.5 h
[26] = Clearance in Wistar Han rat at 1 mg/kg, iv by LC-MS/MS analysis; assay type: ADME, organism-based; settings: in vivo

Structure (SMILES) | pKi (PCSK9/LDLR) | AUC(0-inf) [1] | AUC [2] | clearance [3] | Vd [4] | half-life [5] | fraction unbound at 4 h, 2.5 µM [6] | remaining at 1 h, 100 µM (Chymotrypsinogen A) | remaining at 1 h, 100 µM [7] | remaining at 1 h, 100 µM [8] | remaining at 1 h, 100 µM [9] | half-life at 100 µM [10] | half-life at 100 µM [11] | pKi [12] | AUC [14] | Vd [15] | half-life [16] | fraction unbound [17] | Activity [25] | also measured
C[C@H]1NC(=O)[C@H](CCCCN)NC(=O)CCSCc2cccc(c2)CSCCNC(=O)[C@]2(C)CCCN2C(=O)[C@H](Cc2ccc(O)cc2)NC(=O)[C@H](Cc2cnc[nH]2)NC(=O)[C@H](CC(=O)O)NC(=O)[C@H](Cc2c[nH]c3ccc(F)cc23)NC(=O)[C@H](Cc2c[nH]c3ccc(F)cc23)NC1=O | 7.63 | 0.492 µM·h | 0.491 µM·h | 24.2 mL/min/kg | 0.29 L/kg | 0.78 h | 0.0077 | 42.7% | 99.1% | 93.7% | 79.5% | 3.1 h | > 6 h | 8.38 |  |  |  |  |  | 
COc1ccc(C[C@@H]2NC(=O)[C@H]([C@@H](C)O)NC(=O)[C@@H]3CCC(=O)NCc4cccc(c4)C[C@H](NC(=O)[C@@H](C)NC(=O)[C@H](C)NC(=O)CCSCc4cccc(c4)CSCCNC(=O)[C@]4(C)CCCN4C2=O)C(=O)N[C@@H](Cc2c[nH]c4ccc(F)cc24)C(=O)N3)cc1 |  | 0.841 µM·h | 0.84 µM·h | 16 mL/min/kg | 0.23 L/kg | 0.66 h | 0.015 | 2.5% | 100% | 98.2% | 100% | > 6 h | 1.88 h | 8.82 |  |  |  |  |  | 
COc1ccc(C[C@@H]2NC(=O)[C@H]([C@@H](C)O)NC(=O)[C@@H]3CCCN3C(=O)[C@@H]3Cc4cn(c5ccc(F)cc45)Cc4cn(nn4)-c4cc(cc(c4)CSCCC(=O)N[C@@H](C)C(=O)N[C@H](C)C(=O)N[C@@H](Cc4c[nH]c5ccc(F)cc45)C(=O)N3)CSCCNC(=O)[C@]3(C)CCCN3C2=O)cc1 |  |  |  |  |  |  |  | 91.8% | 96.6% | 98.9% | 99.2% |  | > 6 h | 8.87 | 0.0194 µM·h | 0.48 L/kg | 0.06 h | 0.003 |  | AUC [13]: 0.0233 µM·h; AUC(0-inf) [18]: 0.306 µM·h; AUC [19]: 0.304 µM·h; clearance [20]: 20.1 mL/min/kg; Vd [21]: 1.06 L/kg; half-life [22]: 2.84 h; fraction unbound [23]: 0.025
C[C@@]12CCCN1C(=O)[C@H](Cc1ccc(O)cc1)NC(=O)[C@H](Cc1cnc[nH]1)NC(=O)[C@H](CC(=O)O)NC(=O)[C@H](Cc1c[nH]c3ccc(F)cc13)NC(=O)[C@H](Cc1c[nH]c3ccc(F)cc13)NC(=O)CNC(=O)[C@H](CCCCN)NC(=O)CCSCc1cccc(c1)CSC[C@@H](C(N)=O)NC2=O ([Mpa]KG[Trp(5-F)][Trp(5-F)]DHY[αMeP]C-NH2; linker 1-10 via mXylylene) | 7.85 | 0.181 µM·h | 0.185 µM·h | 65.4 mL/min/kg | 1.2 L/kg | 0.33 h | 0.0515 | 10.9% | 52.7% | 94% | 0.9% | 5.19 h | > 6 h | 8.40 |  |  |  |  | Non-Toxic | pEC50 ([24]; Rattus norvegicus, Wistar, Mast cell, 0.5 h, read-out: EC50): 5.18
COc1ccc(C[C@@H]2NC(=O)[C@H](Cc3cnc[nH]3)NC(=O)[C@H](CC(=O)O)NC(=O)[C@H](Cc3c[nH]c4ccc(F)cc34)NC(=O)[C@H](Cc3c[nH]c4ccc(F)cc34)NC(=O)[C@@H](C)NC(=O)[C@H](CCCC[N+](C)(C)C)NC(=O)CCSCc3cccc(c3)CSCCNC(=O)[C@]3(C)CCCN3C2=O)cc1 (cyclo(DHY(Me)[αMeP][X1][Lys(Me3)][dA][Trp(5-F)][Trp(5-F)])) |  | 0.933 µM·h | 0.896 µM·h | 6.2 mL/min/kg | 0.45 L/kg | 1.16 h | 0.007 | 24.2% | 68.2% | 87.5% | 98.4% | > 6 h |  | 8.02 | 3.65 µM·h | 0.17 L/kg | 2.46 h | 0.001 | Non-Toxic | EC50 ([24]; mast cell): Non-Toxic; AUC(0-inf) ([13]; Wistar Han): 3.65 µM·h; clearance [26]: 3.16 mL/min/kg
